Test results from ChEMBL document CHEMBL1201862, “PubChem BioAssay data set” (2004).
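All cell lines were grown in 96-well plates and treated with compound for 48 hours. Here, GI50 denotes the concentration required for 50% inhibition of growth.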 Activity calls are given as the source filed them. Rule as the data show it: active = GI50 up to about 1.1 µM and inactive = higher.

Key:
Assay in all cases: NCI tumour cell line growth inhibition, 48 h
SNB-75 = system: SNB-75
LXFL 529 = system: LXFL 529
HOP-92 = system: HOP-92
RXF 631 = system: RXF 631
A549 = system: A549
A498 = system: A498
DMS-114 = system: DMS-114
KM12 = system: KM12
HCT-116 = system: HCT-116
M19-MEL = system: M19-MEL
U-251 = system: U-251
DMS-273 = system: DMS-273
CCRF-CEM = system: CCRF-CEM
OVCAR-3 = system: OVCAR-3
ACHN = system: ACHN
HCC 2998 = system: HCC 2998
SK-MEL-2 = system: SK-MEL-2
SW-620 = system: SW-620
OVCAR-4 = system: OVCAR-4
CAKI-1 = system: CAKI-1
DLD-1 = system: DLD-1
UACC-257 = system: UACC-257
RPMI-8226 = system: RPMI-8226
NCI-H226 = system: NCI-H226
M14 = system: M14
NCI-H460 = system: NCI-H460
TK-10 = system: TK-10
LOX IMVI = system: LOX IMVI
OVCAR-5 = system: OVCAR-5
SR = system: SR
EKVX = system: EKVX
SK-MEL-28 = system: SK-MEL-28
K562 = system: K562
786-0 = system: 786-0
SF-539 = system: SF-539
HOP-62 = system: HOP-62
HCT-15 = system: HCT-15
SNB-78 = system: SNB-78
KM-20L2 = system: KM-20L2
Malme-3M = system: Malme-3M
HL-60 = system: HL-60
SF-295 = system: SF-295
XF498 = system: XF498
UACC-62 = system: UACC-62
OVCAR-8 = system: OVCAR-8
UO-31 = system: UO-31
NCI-H522 = system: NCI-H522
HOP-18 = system: HOP-18
SF-268 = system: SF-268
COLO 205 = system: COLO 205
NCI-H23 = system: NCI-H23
RXF 393 = system: RXF 393
SN12C = system: SN12C
SK-OV-3 = system: SK-OV-3
MOLT-4 = system: MOLT-4
SNB-19 = system: SNB-19
IGROV-1 = system: IGROV-1
HT-29 = system: HT-29
SK-MEL-5 = system: SK-MEL-5
MDA-MB-435 = system: MDA-MB-435
NCI/ADR-RES = system: NCI/ADR-RES
T47D = system: T47D
Hs-578T = system: Hs-578T
MDA-N = system: MDA-N
MDA-MB-231 = system: MDA-MB-231
MCF7 = system: MCF7
BT-549 = system: BT-549
PC-3 = system: PC-3
DU-145 = system: DU-145

Clc1ccc(CN2COc3c(cc(Cl)c4cccnc34)C2)cc1
GI50 (SNB-75): 3.4 µM (inactive) | GI50 (LXFL 529): 1.36 µM (inactive) | GI50 (HOP-92): 3.64 µM (inactive) | GI50 (RXF 631): 10.3 µM (inactive) | GI50 (A549): 2.39 µM (inactive) | GI50 (A498): 12.1 µM (inactive) | GI50 (DMS-114): 1.84 µM (inactive) | GI50 (KM12): 2.37 µM (inactive) | GI50 (HCT-116): 2.15 µM (inactive) | GI50 (M19-MEL): 2.28 µM (inactive) | GI50 (U-251): 2.32 µM (inactive) | GI50 (DMS-273): 1.78 µM (inactive) | GI50 (CCRF-CEM): 1.79 µM (inactive) | GI50 (OVCAR-3): 1.99 µM (inactive) | GI50 (ACHN): 1.74 µM (inactive) | GI50 (HCC 2998): 4.3 µM (inactive) | GI50 (SK-MEL-2): 1.85 µM (inactive) | GI50 (SW-620): 2.94 µM (inactive) | GI50 (OVCAR-4): 3.33 µM (inactive) | GI50 (CAKI-1): 2.62 µM (inactive) | GI50 (DLD-1): 2.52 µM (inactive) | GI50 (UACC-257): 2.84 µM (inactive) | GI50 (RPMI-8226): 1.16 µM (inactive) | GI50 (NCI-H226): 4.06 µM (inactive) | GI50 (M14): 1.68 µM (inactive) | GI50 (NCI-H460): 2.29 µM (inactive) | GI50 (TK-10): 4.57 µM (inactive) | GI50 (LOX IMVI): 1.38 µM (inactive) | GI50 (OVCAR-5): 2.24 µM (inactive) | GI50 (SR): 1.91 µM (inactive) | GI50 (EKVX): 4.7 µM (inactive) | GI50 (SK-MEL-28): 2.57 µM (inactive) | GI50 (K562): 1.52 µM (inactive) | GI50 (786-0): 2.74 µM (inactive) | GI50 (SF-539): 2.03 µM (inactive) | GI50 (HOP-62): 1.5 µM (inactive) | GI50 (HCT-15): 0.456 µM | GI50 (SNB-78): 4.79 µM (inactive) | GI50 (KM-20L2): 14.3 µM (inactive) | GI50 (Malme-3M): 2.34 µM (inactive) | GI50 (HL-60): 0.546 µM (active) | GI50 (SF-295): 2.52 µM (inactive) | GI50 (XF498): 0.973 µM (active) | GI50 (UACC-62): 1.55 µM (inactive) | GI50 (OVCAR-8): 2.04 µM (inactive) | GI50 (UO-31): 0.649 µM (active) | GI50 (NCI-H522): 1.6 µM (inactive) | GI50 (HOP-18): 3.96 µM (inactive) | GI50 (SF-268): 2.93 µM (inactive) | GI50 (COLO 205): 16.2 µM (inactive) | GI50 (NCI-H23): 2.57 µM (inactive) | GI50 (RXF 393): 1.58 µM (inactive) | GI50 (SN12C): 4.23 µM (inactive) | GI50 (SK-OV-3): 2.77 µM (inactive) | GI50 (MOLT-4): 1.7 µM (inactive) | GI50 (SNB-19): 4.24 µM (inactive) | GI50 (IGROV-1): 2.36 µM (inactive) | GI50 (HT-29): 11.9 µM (inactive) | GI50 (SK-MEL-5): 2.26 µM (inactive)

Cc1c2cc[n+]([O-])cc2c(C)c2c1[nH]c1ccccc12
GI50 (SNB-75): 5.77 µM (inactive) | GI50 (LXFL 529): 4.65 µM (inactive) | GI50 (HOP-92): 10.2 µM (inactive) | GI50 (RXF 631): 0.879 µM (active) | GI50 (A549): 4.28 µM (inactive) | GI50 (A498): 7.33 µM (inactive) | GI50 (DMS-114): 11.2 µM (inactive) | GI50 (KM12): 9.75 µM (inactive) | GI50 (MDA-MB-435): 6.61 µM (inactive) | GI50 (HCT-116): 1.39 µM (inactive) | GI50 (M19-MEL): 13.6 µM (inactive) | GI50 (U-251): 3.76 µM (inactive) | GI50 (DMS-273): 3.82 µM (inactive) | GI50 (CCRF-CEM): 2.88 µM (inactive) | GI50 (OVCAR-3): 12.5 µM (inactive) | GI50 (ACHN): 1.94 µM (inactive) | GI50 (HCC 2998): 12.5 µM (inactive) | GI50 (NCI/ADR-RES): 20.8 µM (inactive) | GI50 (SK-MEL-2): 12.1 µM (inactive) | GI50 (SW-620): 1.87 µM (inactive) | GI50 (OVCAR-4): 9.95 µM (inactive) | GI50 (CAKI-1): 7.05 µM (inactive) | GI50 (DLD-1): 5.42 µM (inactive) | GI50 (UACC-257): 17.7 µM (inactive) | GI50 (RPMI-8226): 6.19 µM (inactive) | GI50 (NCI-H226): 5.37 µM (inactive) | GI50 (M14): 7.1 µM (inactive) | GI50 (T47D): 2.14 µM (inactive) | GI50 (NCI-H460): 2.45 µM (inactive) | GI50 (TK-10): 5.32 µM (inactive) | GI50 (LOX IMVI): 1.67 µM (inactive) | GI50 (OVCAR-5): 4.59 µM (inactive) | GI50 (Hs-578T): 3.54 µM (inactive) | GI50 (SR): 1.29 µM (inactive) | GI50 (EKVX): 11.4 µM (inactive) | GI50 (SK-MEL-28): 37.8 µM (inactive) | GI50 (K562): 4.84 µM (inactive) | GI50 (MDA-N): 4.15 µM (inactive) | GI50 (786-0): 2.74 µM (inactive) | GI50 (SF-539): 2.99 µM (inactive) | GI50 (HOP-62): 5.74 µM (inactive) | GI50 (HCT-15): 5.22 µM | GI50 (MDA-MB-231): 4.28 µM (inactive) | GI50 (SNB-78): 7.71 µM (inactive) | GI50 (KM-20L2): 4.06 µM (inactive) | GI50 (Malme-3M): 8.95 µM (inactive) | GI50 (HL-60): 7.8 µM (inactive) | GI50 (SF-295): 4.58 µM (inactive) | GI50 (XF498): 9.98 µM (inactive) | GI50 (UACC-62): 7.14 µM (inactive) | GI50 (OVCAR-8): 2.86 µM (inactive) | GI50 (UO-31): 5.47 µM (inactive) | GI50 (NCI-H522): 5.97 µM (inactive) | GI50 (HOP-18): 45 µM (inactive) | GI50 (MCF7): 1.21 µM (inactive) | GI50 (SF-268): 4.9 µM (inactive) | GI50 (BT-549): 9.64 µM (inactive) | GI50 (COLO 205): 2.15 µM (inactive) | GI50 (PC-3): 5.04 µM (inactive) | GI50 (NCI-H23): 6.04 µM (inactive) | GI50 (RXF 393): 6.73 µM (inactive) | GI50 (SN12C): 4.93 µM (inactive) | GI50 (DU-145): 8.73 µM (inactive) | GI50 (SK-OV-3): 10.8 µM (inactive) | GI50 (MOLT-4): 0.998 µM (active) | GI50 (SNB-19): 7.13 µM (inactive) | GI50 (IGROV-1): 6.89 µM (inactive) | GI50 (HT-29): 3.57 µM (inactive) | GI50 (SK-MEL-5): 6.85 µM (inactive)
